Measured values as given in patent EP4707280A1, “1,4-CINEOLE DERIVATIVE AND INTERMEDIATE THEREOF, HERBICIDE CONTAINING SAID DERIVATIVE AS ACTIVE INGREDIENT, METHOD FOR USING HERBICIDE, AND METHOD FOR PREPARING AGROCHEMICAL COMPOSITION” (HOKKO CHEMICAL INDUSTRY CO., LTD., priority 2023, dated 2024).

How the values were obtained:
Format in all cases: in vivo
Monochoria vaginalis [1] = test: Test Example 1: herbicidal effect test by soil application in paddy rice; conditions: Pontederia vaginalis, soil, 336 h; 120 g active ingredient per 10 ares; applied immediately after sowing, flooded pots; 14 days after application; read-out: weed inhibition rate
Procedure, shortened: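 Pre-emergence test in puddled, flooded paddy soil (about 3 cm water), 30 seeds per weed sown at 0–1 cm depth in a glass greenhouse. Emulsifiable concentrate diluted in water and dropped onto the pots straight after sowing at 120 g a.i. per 10 ares. Weed inhibition (%) scored at 14 days, in duplicate.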

[2] = test system: Echinochloa crus-galli var. formosensis; test: Test Example 5: herbicidal effect test by soil application in paddy rice (low dose); conditions: Echinochloa crus-galli, soil, 336 h; 7.5 g per 10 ares; applied immediately after sowing, flooded pots; 14 days after application; read-out: weed inhibition rate
Procedure, shortened: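 7.5 g a.i./10 a applied by dropper into ~3 cm floodwater immediately post-sowing (seeds 0–1 cm, 30 per species; puddled fertilized paddy soil, glasshouse). Duplicates; day-14 inhibition %.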

Scirpus juncoides = test: Test Example 2: herbicidal effect test by application during growth period of paddy rice; conditions: Schoenoplectiella juncoides; 120 g per 10 ares; applied seven days after sowing, flooded pots; 14 days after application; read-out: weed inhibition rate
Procedure, shortened: (§1)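 Greenhouse pots of flooded paddy soil, seeded shallowly with 30 seeds per weed, are treated on day 7 by dropper with diluted emulsifiable concentrate equal to 120 g a.i./10 a. Duplicate pots are scored for inhibition rate 14 days post-application.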

Monochoria vaginalis [3] = test: as above; conditions: Pontederia vaginalis; 120 g per 10 ares; applied seven days after sowing, flooded pots; 14 days after application; read-out: weed inhibition rate
Procedure, shortened: as §1

[4] = test system: Echinochloa crus-galli var. formosensis; test: as above; conditions: Echinochloa crus-galli; 120 g per 10 ares; applied seven days after sowing, flooded pots; 14 days after application; read-out: weed inhibition rate
Procedure, shortened: as §1

[5] = test system: Echinochloa crus-galli var. formosensis; test: Test Example 6: herbicidal effect test by application during growth period of paddy rice (low dose); conditions: Echinochloa crus-galli; 7.5 g per 10 ares; applied seven days after sowing, flooded pots; 14 days after application; read-out: weed inhibition rate
Procedure, shortened: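 Paddy soil in flooded Wagner pots (about 3 cm water), weeds sown at 0–1 cm, 30 seeds each, grown in a glass greenhouse. Seven days after sowing, water-diluted emulsifiable concentrate was dropped into the water at 7.5 g active ingredient per 10 ares. Weed inhibition rate (%) was scored 14 days after application, in duplicate.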

Echinochloa crus-galli [6] = test: Test Example 4: herbicidal effect test by stem and leaf treatment in upland field; conditions: Echinochloa crus-galli; 120 g per 10 ares; sprayed seven days after sowing, upland soil; 14 days after application; read-out: weed inhibition rate
Echinochloa crus-galli [7] = test: Test Example 7: herbicidal effect test by soil application in upland field (low dose); conditions: Echinochloa crus-galli, 7.5 g per 10 ares, sprayed one day after sowing, 14 days after application, read-out: weed inhibition rate
Procedure, shortened: (§2)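 Duplicate pots of alluvial loam, seeds incorporated in the surface 1 cm. Soil surface sprayed 1 d after sowing (EC in water, 100 L/10 a; 7.5 g a.i./10 a). Endpoint: % inhibition, day 14.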

Digitaria ciliaris [8] = test: as above; conditions: Digitaria ciliaris, 7.5 g per 10 ares, sprayed one day after sowing, 14 days after application, read-out: weed inhibition rate
Procedure, shortened: as §2

Echinochloa crus-galli [9] = test: Test Example 8: herbicidal effect test by stem and leaf treatment in upland field (low dose); conditions: Echinochloa crus-galli; 7.5 g per 10 ares; sprayed seven days after sowing, upland soil; 14 days after application; read-out: weed inhibition rate
Digitaria ciliaris [10] = test: as above; conditions: Digitaria ciliaris; 7.5 g per 10 ares; sprayed seven days after sowing, upland soil; 14 days after application; read-out: weed inhibition rate

CC(C)[C@]12C[C@@H](OCc3ccc(F)cc3)[C@](C)(C[C@@H]1Br)O2 [1-691, (1S,2R,4R,5S)-5-bromo-2-[(4-fluorophenyl)methoxy]-1-methyl-4-isopropyl-7-oxabicyclo[2.2.1]heptane]
≥ 80%: pest or weed control at 1200 g/ha (Monochoria vaginalis [1]) | inhibition at 75 g/ha [2] | inhibition at 1200 g/ha (Scirpus juncoides) | inhibition at 1200 g/ha (Monochoria vaginalis [3]) | inhibition at 1200 g/ha [4] | inhibition at 75 g/ha [5] | inhibition at 1200 g/ha (Echinochloa crus-galli [6]) | inhibition at 75 g/ha (Echinochloa crus-galli [7]) | inhibition at 75 g/ha (Digitaria ciliaris [8]) | inhibition at 75 g/ha (Echinochloa crus-galli [9]) | inhibition at 75 g/ha (Digitaria ciliaris [10])

CC(C)[C@]12C[C@@H](OCc3c(F)cccc3Cl)[C@](C)(C[C@@H]1Br)O2 [1-713, (1S,2R,4R,5S)-5-bromo-2-[(2-chloro-6-fluorophenyl)methoxy]-1-methyl-4-isopropyl-7-oxabicyclo[2.2.1]heptane]
≥ 80%: pest or weed control at 1200 g/ha (Monochoria vaginalis [1]) | inhibition at 75 g/ha [2] | inhibition at 1200 g/ha (Scirpus juncoides) | inhibition at 1200 g/ha (Monochoria vaginalis [3]) | inhibition at 1200 g/ha [4] | inhibition at 75 g/ha [5] | inhibition at 1200 g/ha (Echinochloa crus-galli [6]) | inhibition at 75 g/ha (Echinochloa crus-galli [7]) | inhibition at 75 g/ha (Digitaria ciliaris [8]) | inhibition at 75 g/ha (Echinochloa crus-galli [9]) | inhibition at 75 g/ha (Digitaria ciliaris [10])

Cc1ccccc1CO[C@@H]1C[C@]2(C(C)C)O[C@@]1(C)C[C@@H]2I [1-741, (1S,2R,4R,5S)-5-iodo-1-methyl-2-[(2-methylphenyl)methoxy]-4-isopropyl-7-oxabicyclo[2.2.1]heptane]
≥ 80%: pest or weed control at 1200 g/ha (Monochoria vaginalis [1]) | inhibition at 75 g/ha [2] | inhibition at 1200 g/ha (Scirpus juncoides) | inhibition at 1200 g/ha (Monochoria vaginalis [3]) | inhibition at 1200 g/ha [4] | inhibition at 75 g/ha [5] | inhibition at 1200 g/ha (Echinochloa crus-galli [6]) | inhibition at 75 g/ha (Echinochloa crus-galli [7]) | inhibition at 75 g/ha (Digitaria ciliaris [8]) | inhibition at 75 g/ha (Echinochloa crus-galli [9]) | inhibition at 75 g/ha (Digitaria ciliaris [10])

C=CCO[C@@H]1C[C@]2(C)O[C@@]1(C(C)C)C[C@H]2OCc1ccccc1F [1-930, (1S,2R,4R,5R)-2-[(2-fluorophenyl)methoxy]-1-methyl-4-isopropyl-5-prop-2-enoxy-7-oxabicyclo[2.2.1]heptane]
≥ 80%: pest or weed control at 1200 g/ha (Monochoria vaginalis [1]) | inhibition at 75 g/ha [2] | inhibition at 1200 g/ha (Scirpus juncoides) | inhibition at 1200 g/ha (Monochoria vaginalis [3]) | inhibition at 1200 g/ha [4] | inhibition at 75 g/ha [5] | inhibition at 1200 g/ha (Echinochloa crus-galli [6]) | inhibition at 75 g/ha (Echinochloa crus-galli [7]) | inhibition at 75 g/ha (Digitaria ciliaris [8]) | inhibition at 75 g/ha (Echinochloa crus-galli [9]) | inhibition at 75 g/ha (Digitaria ciliaris [10])

C#CCO[C@@H]1C[C@]2(C)O[C@@]1(C(C)C)C[C@H]2OCc1ccccc1F [1-931, (1S,2R,4R,5R)-2-[(2-fluorophenyl)methoxy]-1-methyl-4-isopropyl-5-prop-2-ynoxy-7-oxabicyclo[2.2.1]heptane]
≥ 80%: pest or weed control at 1200 g/ha (Monochoria vaginalis [1]) | inhibition at 75 g/ha [2] | inhibition at 1200 g/ha (Scirpus juncoides) | inhibition at 1200 g/ha (Monochoria vaginalis [3]) | inhibition at 1200 g/ha [4] | inhibition at 75 g/ha [5] | inhibition at 1200 g/ha (Echinochloa crus-galli [6]) | inhibition at 75 g/ha (Echinochloa crus-galli [7]) | inhibition at 75 g/ha (Digitaria ciliaris [8]) | inhibition at 75 g/ha (Echinochloa crus-galli [9]) | inhibition at 75 g/ha (Digitaria ciliaris [10])

CC(C)C12CC(OCc3ccccc3F)C(C)(CC1Br)O2 (centres unmarked) [1-1355, 5-bromo-2-[(2-fluorophenyl)methoxy]-1-methyl-4-isopropyl-7-oxabicyclo[2.2.1]heptane]
≥ 80%: pest or weed control at 1200 g/ha (Monochoria vaginalis [1]) | inhibition at 75 g/ha [2] | inhibition at 1200 g/ha (Scirpus juncoides) | inhibition at 1200 g/ha (Monochoria vaginalis [3]) | inhibition at 1200 g/ha [4] | inhibition at 75 g/ha [5] | inhibition at 1200 g/ha (Echinochloa crus-galli [6]) | inhibition at 75 g/ha (Echinochloa crus-galli [7]) | inhibition at 75 g/ha (Digitaria ciliaris [8]) | inhibition at 75 g/ha (Echinochloa crus-galli [9]) | inhibition at 75 g/ha (Digitaria ciliaris [10])

CC(C)[C@]12C[C@@H](OCc3c(F)cccc3Br)[C@](C)(C[C@@H]1Br)O2 [1-1600, (1S,2R,4R,5S)-5-bromo-2-[(2-bromo-6-fluorophenyl)methoxy]-1-methyl-4-isopropyl-7-oxabicyclo[2.2.1]heptane]
≥ 80%: pest or weed control at 1200 g/ha (Monochoria vaginalis [1]) | inhibition at 75 g/ha [2] | inhibition at 1200 g/ha (Scirpus juncoides) | inhibition at 1200 g/ha (Monochoria vaginalis [3]) | inhibition at 1200 g/ha [4] | inhibition at 75 g/ha [5] | inhibition at 1200 g/ha (Echinochloa crus-galli [6]) | inhibition at 75 g/ha (Echinochloa crus-galli [7]) | inhibition at 75 g/ha (Digitaria ciliaris [8]) | inhibition at 75 g/ha (Echinochloa crus-galli [9]) | inhibition at 75 g/ha (Digitaria ciliaris [10])

CC(C)[C@]12C[C@@H](OCc3ccccc3F)[C@](C)(C[C@@H]1OCC1CC1)O2 [1-1603, (1S,2R,4R,5S)-5-(cyclopropylmethoxy)-2-[(2-fluorophenyl)methoxy]-1-methyl-4-isopropyl-7-oxabicyclo[2.2.1]heptane]
≥ 80%: pest or weed control at 1200 g/ha (Monochoria vaginalis [1]) | inhibition at 75 g/ha [2] | inhibition at 1200 g/ha (Scirpus juncoides) | inhibition at 1200 g/ha (Monochoria vaginalis [3]) | inhibition at 1200 g/ha [4] | inhibition at 75 g/ha [5] | inhibition at 1200 g/ha (Echinochloa crus-galli [6]) | inhibition at 75 g/ha (Echinochloa crus-galli [7]) | inhibition at 75 g/ha (Digitaria ciliaris [8]) | inhibition at 75 g/ha (Echinochloa crus-galli [9]) | inhibition at 75 g/ha (Digitaria ciliaris [10])

Cc1ccccc1CO[C@@H]1C[C@]2(C(C)C)O[C@@]1(C)CC2=O [2-3, (1R,4S,5R)-1-isopropyl-4-methyl-5-((2-methylbenzyl)oxy)-7-oxabicyclo[2.2.1]heptan-2-one]
≥ 80%: pest or weed control at 1200 g/ha (Monochoria vaginalis [1]) | inhibition at 75 g/ha [2] | inhibition at 1200 g/ha (Scirpus juncoides) | inhibition at 1200 g/ha (Monochoria vaginalis [3]) | inhibition at 1200 g/ha [4] | inhibition at 75 g/ha [5] | inhibition at 1200 g/ha (Echinochloa crus-galli [6]) | inhibition at 75 g/ha (Echinochloa crus-galli [7]) | inhibition at 75 g/ha (Digitaria ciliaris [8]) | inhibition at 75 g/ha (Echinochloa crus-galli [9]) | inhibition at 75 g/ha (Digitaria ciliaris [10])

CC(C)[C@]12C[C@@H](OCc3ccccc3F)[C@](C)(CC1=O)O2 [2-9, (1R,4S,5R)-5-((2-fluorobenzyl)oxy)-1-isopropyl-4-methyl-7-oxabicyclo[2.2.1]heptan-2-one]
≥ 80%: pest or weed control at 1200 g/ha (Monochoria vaginalis [1]) | inhibition at 75 g/ha [2] | inhibition at 1200 g/ha (Scirpus juncoides) | inhibition at 1200 g/ha (Monochoria vaginalis [3]) | inhibition at 1200 g/ha [4] | inhibition at 75 g/ha [5] | inhibition at 1200 g/ha (Echinochloa crus-galli [6]) | inhibition at 75 g/ha (Echinochloa crus-galli [7]) | inhibition at 75 g/ha (Digitaria ciliaris [8]) | inhibition at 75 g/ha (Echinochloa crus-galli [9]) | inhibition at 75 g/ha (Digitaria ciliaris [10])
